{
  "source": "paper PMC7493682",
  "about": "“Caffeine Targets SIRT3 to Enhance SOD2 Activity in Mitochondria” (Frontiers in Cell and Developmental Biology, 2020)",
  "target": "T1, SIRT3 (Homo sapiens, UniProt Q9NTG7)",
  "T1 sequence (Q9NTG7 102-399)": "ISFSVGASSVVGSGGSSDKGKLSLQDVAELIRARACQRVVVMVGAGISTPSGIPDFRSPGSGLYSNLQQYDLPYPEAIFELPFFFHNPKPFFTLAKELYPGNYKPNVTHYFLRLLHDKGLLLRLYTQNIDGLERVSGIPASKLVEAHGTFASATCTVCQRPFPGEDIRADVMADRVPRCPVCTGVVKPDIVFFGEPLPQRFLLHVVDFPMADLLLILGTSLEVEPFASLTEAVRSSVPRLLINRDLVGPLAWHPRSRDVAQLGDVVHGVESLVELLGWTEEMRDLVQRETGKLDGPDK",
  "test": "SPR (Biacore S200, immobilized SIRT3); also BLI (KD […]) and activation of the pure enzyme",
  "assay_type": "binding",
  "data": [
    {"smiles": "Cn1c(=O)c2c(ncn2C)n(C)c1=O", "note": "[Caffeine, 1,3,7-trimethylxanthine]", "values": [
      {"measurement": "Kd", "result": 686, "unit": "nM"}
    ]}
  ]
}
